Data from patent US10512700B2, “Radiohalide-labeled targeted diagnostics and therapeutics” (Memorial Sloan Kettering Cancer Center, priority 2014, dated 2019).
Marks after values point to notes of the source that are not given here.

Experiments:
[1] = half-life of PARP1i-FL (T. Reiner et al., unpublished); conditions: in vivo
[2] = cited from earlier work
V79 cells = conditions: DNA-incorporated; cited from earlier work

Compound	tα1/2 [1]	tα1/2, share of phase [1]	tβ1/2 [1]	tβ1/2, share of phase [1]	weighted t1/2 [1]	plasma free fraction [2]	RBE (V79 cells)
Cc1cc(C)n2c1C=C1C=CC(CCC(=O)N3CCN(C(=O)c4cc(Cc5n[nH]c(=O)c6ccccc56)ccc4F)CC3)=[N+]1[B-]2(F)F [PARP1i-FL]	1.2 min	73.2%	88.2 min	26.8%	24.5 min^c	0.7%^b	–
O=c1[nH]c(=O)n([C@H]2C[C@H](O)[C@@H](CO)O2)cc1I [^125I-IdUrd, 5-iodo-2′-deoxy uridine]	–	–	–	–	–	–	about 8
